Laboratory results as given in patent US20120108538A1, “SULFATED POLYSACCHARIDES HAVING ANTIPLASMODIAL ACTIVITY AND METHODS AND PRODUCTS FOR IDENTIFYING ANTIPLASMODIAL ACTIVITY” (priority 2009, published 2012).
≈ marks a conversion by molar mass, not a printed value. Entries after “also recorded” stand apart in the source; their conditions may differ. Ends that are not written are not given here.

Tests used:
[1] = system: purified P. falciparum merozoites invading RBCs; test: Invasion inhibition assay (IIA) using purified merozoites; format: cell-based, Plasmodium falciparum
Description: Purified merozoites were mixed with uninfected RBCs and cultured using standard conditions in 96 well U-bottom plates at a final volume of 50 μl or 100 μl per well. Specific assay conditions were varied for different test conditions, as described in the Results section of the manuscript. Assays were typically performed under static conditions. Some assays were also performed with agitation of merozoite:RBC suspensions.
To test the activity of inhibitory compounds on invasion (Supporting Information Table 3), E64 treated schizonts were resuspended and filtered in culture medium without human serum. A typical merozoite invasion inhibition assay consisted of filtered merozoites (40 ul) added to RBC suspension (5 ul at […]; final concentration 1% hematocrit) and inhibitory compounds (5 ul at 10-times the final concentration required) in 96-well plates. Merozoite:RBCs suspensions containing inhibitors were incubated for one hour and then washed twice with culture medium to remove inhibitors, then resuspended in fresh culture media and incubated and analysed as for standard merozoite invasion assays. A number of compounds were also tested for inhibition of schizont rupture by incubating late stage schizonts (1-2% parasitaemia, 1% haematocrit in 50 ul) with a 1 in 10 dilution of compounds and monitoring the course of schizont rupture at 3 time points over an 8 hour period by flow cytometry.

P. falciparum schizonts = test: Schizont rupture under E64 treatment; format: cell-based, Plasmodium falciparum; settings: 10 uM E64
Description: Parasites were then incubated until most parasites had developed to late-stage pigmented trophozoites and schizonts (typically 40-42 hours). Early to mid schizont stage parasites (40-44 hours post invasion) were separated from uninfected RBC and early-stage infected RBCs (resulting in >95% purity) with a MAC magnet separation column (Macs Miltenyi Biotec). Purified schizonts were then incubated with 10 uM of E64 (Sigma) for 7-8 hours; Applicant typically used approximately 30 ml of culture media for every 100 ml of starting culture (3% hematocrit, 3% parasitemia). After approximately 6 hours of incubation with E64, treated schizonts were pelleted by centrifugation at 1900 g for 5 minutes. Supernatant was removed and schizonts were resuspended in fresh culture media. Resuspended E64 treated parasites were filtered through a 1.2 um Acrodisc 32 mm syringe filter (Pall Corporation). […]
To test the activity of inhibitory compounds on invasion (Supporting Information Table 3), E64 treated schizonts were resuspended and filtered in culture medium without human serum. […] Merozoite:RBCs suspensions containing inhibitors were incubated for one hour and then washed twice with culture medium to remove inhibitors, then resuspended in fresh culture media and incubated and analysed as for standard merozoite invasion assays. […]

[2] = system: P. falciparum blood stage growth; test: Growth inhibition assay (GIA), flow cytometry; format: cell-based, Plasmodium falciparum; settings: for inhibitory activity against P. falciparum blood stage growth in GIA (words) / IC50, inhibition of P. falciparum blood stage growth in GIA: 3D7 parasite line; for IC50, inhibition of P. falciparum blood stage growth in GIA: one cycle of parasite growth
Description: P. falciparum was cultured as described. Parasites were maintained in culture media of RPMI-HEPES supplemented with 5% (vol/vol) heat inactivated (56° C. 1 hr) human serum (Australian Red Cross Blood Bank),. […] (Gibco), 10mM L-glutamine (Gibco) and 25 mM […]. Parasites were grown at 37° C., 2% hematocrit, O+ human erythrocytes (Australian Red Cross Blood Bank), 1% O2 4% CO2 95% N2 atmosphere. Sorbitol (Sigma-Aldrich) was used to synchronize cultures. 32. Persson K E, Lee C T, Marsh K, Beeson J G (2006) Development and optimization of high-throughput methods to measure Plasmodium falciparum-specific growth inhibitory antibodies. J Clin Microbiol 44: 1665-1673.33. Lambros C, Vanderberg J P (1979) Synchronization of Plasmodium falciparum erythrocytic stages in culture. J Parasitol 65: 418-420.
Heparin and K5 polysaccharides (Table 1) were tested for inhibitory activity against P. falciparum parasites using high throughput growth inhibitory assays (GlAs). Duplicate 25 μl suspensions of synchronized parasites, 2% parasitemia (32 hr trophozoite), 1% hematocrit with normal or enzymatically treated erythrocyctes, were incubated with inhibitory compounds in 96 well sterile U-bottom plates (Falcon). For humidification, outside wells were filled with sterile human tonicity phosphate-buffered saline (HT-PBS). Plates were incubated as for parasite culture for 44 hrs and analyzed. Parasites were stained with 10 μg/mL ethidium bromide (EtBr) (BioRad), HT-PBS, 1 hr in darkness. Cells were washed and re-suspended in 200 μL HT-PBS. Parasitemia was measured using FACSCalibur flow-cytometry. Data were analyzed using FlowJo (Tree Star), gating on intact erythrocytes and determining parasitemia by EtBr staining. Inhibitory effects of compounds were expressed as percent growth of uninhibited controls (HT-PBS) for each experiment.
Erythrocytes were treated with neuraminidase, chymotrypsin and trypsin as described previously. Erythrocytes were washed with RPMI-HEPES and incubated with neuraminidase ([…], 15 minutes), chymotrypsin (1 mg/mL, 45 minutes) or trypsin (100 μg/mL, […]) at 37° C. Neuraminidase treated bells were washed three times with RPMI-HEPES and chymotrypsin and trypsin treated cells were washed once with culture media and twice with RPMI-HEPES and then used in GIAs. 34. Persson K E, McCallum F J, Reiling L, Lister N A, Stubbs J, et al. (2008) Variation in use of erythrocyte invasion pathways by Plasmodium falciparum mediates evasion of human inhibitory antibodies. J Clin Invest 118: 342-351.

lactoferrin = biological target: T1, lactoferrin (Homo sapiens, UniProt P02788); test: Heparin-BSA binding assay (positive control protein); settings: data not shown
T1 construct: purchased
T1 sequence (P02788 20-710, species assumed): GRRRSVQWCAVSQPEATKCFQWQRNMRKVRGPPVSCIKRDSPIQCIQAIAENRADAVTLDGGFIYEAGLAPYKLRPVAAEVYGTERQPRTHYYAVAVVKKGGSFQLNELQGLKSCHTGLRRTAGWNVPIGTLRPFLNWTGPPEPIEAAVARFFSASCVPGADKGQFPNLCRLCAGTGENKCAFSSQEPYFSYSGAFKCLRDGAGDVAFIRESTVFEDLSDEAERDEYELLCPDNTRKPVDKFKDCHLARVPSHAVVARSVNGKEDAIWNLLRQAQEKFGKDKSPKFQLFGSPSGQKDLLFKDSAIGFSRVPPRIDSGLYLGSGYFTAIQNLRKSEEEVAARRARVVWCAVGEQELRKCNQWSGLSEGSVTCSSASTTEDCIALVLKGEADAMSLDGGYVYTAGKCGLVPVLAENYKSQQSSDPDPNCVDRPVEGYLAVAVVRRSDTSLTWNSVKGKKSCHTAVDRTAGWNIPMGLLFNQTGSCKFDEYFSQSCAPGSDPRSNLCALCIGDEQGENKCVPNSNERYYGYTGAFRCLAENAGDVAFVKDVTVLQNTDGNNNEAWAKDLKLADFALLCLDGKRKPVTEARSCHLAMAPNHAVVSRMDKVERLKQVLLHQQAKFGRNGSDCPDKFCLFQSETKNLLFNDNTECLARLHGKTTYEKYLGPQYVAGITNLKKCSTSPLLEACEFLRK
Description: (§1) Recombinant merozoite antigens were coated (1 μg/mL) onto 96 well plates (Nunc Maxisorb) in HT-PBS overnight at 4° C. Plates were washed and blocked with 1% casein, 1 hr, room temperature. Plates were incubated with heparin-BSA conjugate with soluble inhibitors and detected with anti-BSA (rabbit) (Sigma-Aldrich) antibodies and anti-rabbit -HRP. Detection was performed with 2,2′-azino-bis(3-ethylbenzthiazoline-6-sulphonic acid) (Sigma-Aldrich) monitored for colour change and measured for absorbance at 405 nm. All incubations were performed in HT-PBS 0.1% casein 0:05% Tween20, 1 hr at room temperature. Plates were washed 3 times HT-PBS 0.05% Tween20 between incubations.

MSP1-42 [3] = biological target: T2, MSP1-42 (Plasmodium falciparum, UniProt Q8I0U8); test: Binding of native merozoite proteins to heparin-agarose beads with soluble inhibitors; set-up: proteolytically processed into 83 kDa, 30 kDa, 38 kDa and a C-terminal 42kDa (MSP1-42) fragment; endogenous in cells; host or cells: P. falciparum schizont-stage cultures, Triton X-100 extract; species or system P. falciparum; settings: soluble inhibitor 200 μg/mL
T2 sequence (Q8I0U8 1327-1699): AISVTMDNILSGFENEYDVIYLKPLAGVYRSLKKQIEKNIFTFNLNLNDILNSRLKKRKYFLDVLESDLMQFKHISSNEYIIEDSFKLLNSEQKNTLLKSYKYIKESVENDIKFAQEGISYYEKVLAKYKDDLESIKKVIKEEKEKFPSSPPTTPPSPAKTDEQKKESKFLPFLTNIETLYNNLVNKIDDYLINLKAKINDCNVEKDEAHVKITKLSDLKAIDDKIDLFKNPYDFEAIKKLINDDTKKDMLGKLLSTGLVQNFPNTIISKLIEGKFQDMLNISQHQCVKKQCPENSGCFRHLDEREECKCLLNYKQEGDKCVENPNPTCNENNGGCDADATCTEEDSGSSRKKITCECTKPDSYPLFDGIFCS
Text: Synchronized schizont stage (40-48 hr, 5-8% parasitemia) cultures were used for protein extraction. Uninfected erythrocytes were lysed with 0.15% saponin (Kodak) on ice for ten minutes. Remaining pellets were washed three times with cold HT-PBS. Protein from schizonts was extracted with 5 times volume of 1% TritonX100 (TX100) (Sigma-Aldrich, Australia), HT-PBS with protease inhibitors (Roche). Insoluble components were pelleted by centrifugation and supernatants collected. Schizont TX100 extracted proteins were bound to heparin-agarose beads (Sigma-Aldrich, Australia) as previously described. Heparin-agarose beads were washed once with 1% casein in PBS, once in PBS, and then blocked with 1% casein in PBS overnight at 4° C. TX100 merozoite protein extracts where incubated with beads containing 0.1% casein and 200 μg/mL of test inhibitor, or PBS as control, overnight at 4° C.; 50 μL of packed beads and 100 μL protein and inhibitor were used or each test sample. Inhibitors used were heparin and CSC. Unbound proteins in the supernatant were collected through Micro Bio-Spin Chromatography Columns (Bio-Rad). After incubation, beads were washed five times with PBS containing 0.1% casein and 1% Triton X-100. Bound proteins were eluted from beads with 50 μL of warmed reducing sample buffer. Bound and unbound proteins were separated by SDS-PAGE under reducing conditions and blotted onto membranes for probing with antibody detection with anti-MSP1 or anti-EBA175. 36. Baum J, Chen L, Healer J, Lopaticki S, Boyle M, et al. (2009) Reticulocyte-binding protein homologue 5—an essential adhesin involved in invasion of human erythrocytes by Plasmodium falciparum: Int J Parasitol 39: 371-380.

MSP1-42 [4] = biological target: T2, MSP1-42; test: Heparin-BSA binding assay; set-up: a C-terminal 42kDa (MSP1-42) fragment; made in house; host or cells: E. coli; species or system P. falciparum; settings: soluble inhibitor
Description: as §1

Compound: CC(C)C[C@H](NC(=O)[C@H]1O[C@@H]1C(=O)O)C(=O)NCCCCN=C(N)N (relative stereo) [E64, trans-Epoxysuccinyl-L-leucylamido(4-guanidino)butane]
- effect on invasive capacity of merozoites ([1]; merozoites incubated with E64): did not affect
- effect on schizont rupture / merozoite release (P. falciparum schizonts): inhibiting rupture

Compound: O=C(O)CN(CCN(CC(=O)O)CC(=O)O)CC(=O)O [EDTA]
- inhibition of merozoite invasion in IIA [1]: inhibited invasion

Compound: CO[C@H]1O[C@H](COS(=O)(=O)O)[C@@H](O[C@@H]2O[C@@H](C(=O)O)[C@@H](O[C@H]3O[C@H](COS(=O)(=O)O)[C@@H](O[C@@H]4O[C@H](C(=O)O)[C@@H](O[C@H]5O[C@H](COS(=O)(=O)O)[C@@H](O)[C@H](O)[C@H]5NS(=O)(=O)O)[C@H](O)[C@H]4O)[C@H](OS(=O)(=O)O)[C@H]3NS(=O)(=O)O)[C@H](O)[C@H]2OS(=O)(=O)O)[C@H](O)[C@H]1NS(=O)(=O)O [Fondaparinux]
- IC50 ([2]; Plasmodium falciparum, read-out: IC50 against Plasmodium falciparum invasion): ~100 mg/L (≈ 66.3 µM)

Compound: C=C1[C@@H](C)[C@H]2[C@H](Cc3ccccc3)NC(=O)[C@]23[C@H](OC(C)=O)/C=C/[C@@](C)(O)C(=O)[C@@H](C)C/C=C/[C@H]3[C@@H]1O [cytochalasin D]
- inhibition of merozoite invasion in IIA [1]: effectively inhibited merozoite invasion

Compound: VFAEFLPLFSKFGSRMHILK [AMA1-binding peptide]
- inhibition of merozoite invasion in IIA [1]: effectively inhibited merozoite invasion

Compound: chondroitin sulfate B-2,4-di-sulfated [CSB-2,4-OS]
- inhibitory activity against P. falciparum blood stage growth in GIA (words) [2]: not inhibitory

Compound: chondroitin sulfate B-2-6-di-sulfated [CSB-2,6-OS]
- inhibitory activity against P. falciparum blood stage growth in GIA (words) [2]: some inhibitory activity

Compound: chondroitin sulfate C [CSC]
- inhibition of lactoferrin binding to heparin-BSA (lactoferrin): not
- inhibition of native MSP1-42 binding to heparin-agarose beads (MSP1-42 [3]): not
- inhibitory activity against P. falciparum blood stage growth in GIA (words) [2]: non-inhibitory; also recorded: not inhibitory

Compound: chondroitin sulfate D [CSD]
- inhibitory activity against P. falciparum blood stage growth in GIA (words) [2]: not inhibitory

Compound: chondroitin sulfate E [CSE]
- inhibition of different P. falciparum lines ([2]; 3D7, W2mef, D10, E8B, XIE, HCS3, SA-dependent and SA-independent invasion): inhibited to similar levels
- IC50, inhibition of P. falciparum blood stage growth in GIA [2]: 26.7 mg/L

Compound: de-2-O-sulfated heparin
- inhibitory activity against P. falciparum blood stage growth in GIA (words) [2]: reduced activity
- IC50, inhibition of P. falciparum blood stage growth in GIA [2]: 123 mg/L

Compound: de-6-O-sulfated heparin
- inhibition of native MSP1-42 binding to heparin-agarose beads (MSP1-42 [3]): not
- inhibition of native MSP1-42 binding to heparin-agarose beads (MSP1-42 [3]; listed as de-60-sulfated): unable to inhibit binding
- inhibitory activity against P. falciparum blood stage growth in GIA (words) [2]: reduced activity
- IC50, inhibition of P. falciparum blood stage growth in GIA [2]: 373 mg/L
- inhibition of heparin-BSA binding to recombinant MSP1-42 (MSP1-42 [4]): inhibition

Compound: de-N de-O-sulfated heparin [de-N/O-sulfated heparin]
- inhibitory activity against P. falciparum blood stage growth in GIA (words) [2]: loss of inhibitory activity
- inhibitory activity against P. falciparum blood stage growth in GIA (words) ([2]; listed as Completely desulfated heparin): no activity
- inhibition of heparin-BSA binding to recombinant MSP1-42 (MSP1-42 [4]): inhibition

Compound: de-N-sulfated heparin
- inhibition of native MSP1-42 binding to heparin-agarose beads (MSP1-42 [3]): not
- inhibition of native MSP1-42 binding to heparin-agarose beads (MSP1-42 [3]; listed as de-N-sulfated): unable to inhibit binding
- inhibitory activity against P. falciparum blood stage growth in GIA (words) [2]: no activity
- inhibitory activity against P. falciparum blood stage growth in GIA (words) ([2]; listed as de-N-sulfated): loss of inhibitory activity

Compound: dextran sulfate
- IC50, inhibition of P. falciparum blood stage growth in GIA [2]: 37 mg/L

Compound: fucoidan
- IC50, inhibition of P. falciparum blood stage growth in GIA [2]: 38 mg/L
